One compound from patent US5272175A, “Substituted tyrosyl diamide compounds” (priority 1992, dated 1993) can be followed below.

Structures can show the parent of a compound that is named as a salt.

For assay [1], the system named is mice. Put plainly: Writhing Assay (phenylbenzoquinone (PBQ)-induced writhing), analgesic activity. The assay is classed as in vivo, CD Charles River mice. The settings on record: for ED50: Mus musculus, 50% of mice with writhes <= half control median. From the text:
The "Writhing Assay" is one of the most widely-used experimental procedures for measuring the analgesic activity of different narcotic and nonnarcotic analgesic agents, and involves the continuous, chemically-induced pain of visceral origin to an animal, such as a mouse or rat. [Gyires et al., Arch. int. Pharmacodyn, 267, 131-140 (1984); C. Vander Wende et al., Fed. Proc., 15, 494 (1956); Koster et al., Fed. Proc., 18, 412 (1959); and Witken et al., J. Pharmacol. Exp. Ther., 133, 400-408 (1961).] Chemicals which may be used to induce this pain include phenylbenzoquinone (PBQ) and acetic acid. As a result of the chemical irritation to the animal, a characteristic stretching and writhing of the animal (dorsiflexion of the animal's back, extension of its hindlimbs and the strong contraction of its abdominal musculature) will generally occur. […] Drugs which reduce the number of writhes of the animal appear to restore the normal nociceptive threshold of the animal.
This assay was conducted generally in the manner described by R. I. Taber, "Predictive Value of Analgesic Assays in Mice and Rats," Advances in Biochemical Phychopharmacology, 8, 191 (1974).
Two hundred CD Charles River mice, weighing 20 to 30 grams, were used in this assay.
Twenty-five minutes after subcutaneous administration, and fifteen minutes after oral administration, to the mice of 10 mg per kilogram (mpk) of body weight of either a tyrosyl diamide compound of the invention (hereinafter "test compound"), or of the Jacobson Compound, 0.1 mL per 10 g of body weight of a 0.025% w/v solution of phenylbenzoquinone (PBQ) was injected intraperitoneally into each mouse. Some mice were given saline in place of a test compound, or of the Jacobson Compound, and were used as a control group.
Five minutes later, each mouse was individually placed into a glass beaker for observation, and the number of writhes occurring during the following ten-minute period was counted.
A compound was considered to be "active" (to have produced analgesia in a mouse) if, after the administration of 10 mg per kilogram (mpk) of body weight of the compound to the mouse, the number of writhes elicited by a mouse injected with PBQ was equal to, or less than, one-half the median number of writhes recorded for the saline-treated control group of mice that day, as described by R. I. Taber, supra.
The standard initial screening dose of a test compound employed in this assay was 10 mpk […] for both routes of administration. If this initial screening dose of the compound produced analgesia in seven of ten mice, then the effect of additional doses of the compound on the writhing response was evaluated, and then the ED50 value (that dose of a compound which produced analgesia in 50% of the mice to which the compound was administered) was calculated. A maximum likelihood function was used to determine the ED50 value. (The slopes of the dose-response curves for the compounds analyzed were compared as described by Tallarida and Murray, Manual of Pharmacologic Calculations, Page 1 (Springer Verlag, N.Y., 1981)).
Background: Writhing tests count abdominal constrictions after an irritant is injected.

Assay [2] deals with mice. Briefly: Tail Flick Assay. The format is in vivo, Male Charles River albino mice. The settings on record: Mus musculus, sc, subcutaneous, dose producing half maximum possible increase in latency (to 7.5 seconds). From the text:
(§1) The "Tail Flick Assay" and the "Hot Plate Assay" (also known as the "Hind Paw Lick Assay") use thermal pain of transient duration, and are tests in which the pain threshold of the mice or rats being analyzed has not been altered. They are useful for evaluating the ability of a compound or drug to increase the animal's pain threshold (i.e. prolong response latencies), rather than to restore normal thresholds.
(§2) The heat-induced response to the Tail Flick Assay is a reflex reaction mediated at the level of the spinal cord. The heat-induced response to the Hot Plate Assay, however, is a more complex behavior requiring integration at higher centers in the brain. […]
(§3) Tail flick response latencies (defined as the time that elapsed between the onset of a high intensity beam of light and the reflex removal of the mouse's tail) and hot plate response latencies (defined as the time that elapsed between the placement of a mouse on a 55 degrees Celsius surface and a lick of the hind paw) were separately, but consecutively, measured before (baseline) and again at fixed intervals after subcutaneous administration of the Test Tyrosyl Diamide Compound, or after the administration of saline (controls). […] The significance of any increase in tail flick response latency or hot plate response latency is determined using analyses of variance. […]
(In general: Hot-plate and tail-flick tests time the reaction to a heat stimulus.)

In assay [3] the test system is mice. Briefly: Hot Plate Assay (Hind Paw Lick Assay). The assay is classed as in vivo, Male Charles River albino mice. The conditions noted are these: Mus musculus, sc, subcutaneous, 55 degrees Celsius, dose producing half maximum possible increase in latency (to 25 seconds).
Text: as §1, §2, §3

The next assay has as its target δ opioid receptors (Rattus norvegicus, UniProt P33533). Put plainly: Opiate Binding Assay, displacement of 3[H]-DSLET from δ receptors.
The target of the next assay is μ opioid receptors (Rattus norvegicus, UniProt P33535). Put plainly: Opiate Binding Assay, displacement of 3[H]-DAMPGO from μ receptors.
Sequence of μ opioid receptors (P33535 whole entry): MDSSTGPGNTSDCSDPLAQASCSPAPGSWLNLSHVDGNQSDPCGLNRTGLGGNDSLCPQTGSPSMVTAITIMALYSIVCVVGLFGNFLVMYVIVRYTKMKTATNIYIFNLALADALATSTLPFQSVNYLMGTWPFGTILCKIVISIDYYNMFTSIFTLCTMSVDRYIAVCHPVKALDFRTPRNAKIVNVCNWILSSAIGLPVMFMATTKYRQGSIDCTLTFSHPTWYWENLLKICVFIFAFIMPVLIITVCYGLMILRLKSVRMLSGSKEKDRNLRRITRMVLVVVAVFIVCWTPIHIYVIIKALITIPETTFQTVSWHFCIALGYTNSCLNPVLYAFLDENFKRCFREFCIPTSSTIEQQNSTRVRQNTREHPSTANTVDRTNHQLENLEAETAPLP

Sequence of δ opioid receptors (P33533 whole entry): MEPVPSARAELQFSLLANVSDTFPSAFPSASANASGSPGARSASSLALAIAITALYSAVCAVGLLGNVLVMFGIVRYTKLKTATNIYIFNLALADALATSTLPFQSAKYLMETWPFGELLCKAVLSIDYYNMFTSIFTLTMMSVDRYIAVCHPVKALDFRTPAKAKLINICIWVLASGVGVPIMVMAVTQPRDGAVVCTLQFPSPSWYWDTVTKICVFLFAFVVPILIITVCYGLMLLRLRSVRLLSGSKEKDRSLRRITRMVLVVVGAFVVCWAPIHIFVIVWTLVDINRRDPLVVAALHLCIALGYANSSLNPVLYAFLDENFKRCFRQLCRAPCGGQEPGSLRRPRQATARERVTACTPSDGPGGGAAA

A word on the ED50: it is the dose at which the effect has come halfway, by size or by number of responders. As usually defined, the IC50 is the concentration that gives 50% inhibition. Read a high IC50 as weaker potency in that assay. As for `CC(=O)N[C@@H](Cc1ccccc1)C(=O)NCC(C)(C)NC(=O)[C@@H](N)Cc1c(C)cc(O)cc1C` [Example 47, αS-(Acetylamino)-N-[2-[[[2S-amino-3-(4-hydroxy-2,6-dimethylphenyl) -1-oxopropyl]amino]-2-methylpropyl]-benzenepropanamide, monohydrochloride], the “potency rank in the Writhing Assay” value in the assay with mice [1] was “most potent compound of the invention tested”. For the same compound, the ED50 came out at 0.6 mg/kg in the assay on mice [1] (0.25 h, oral, PBQ i.p. 15 min after compound, read-out: ED50, Writhing Assay, Oral (p.o.)); 0.2 mg/kg in the assay on mice [1] (sc, 25 min, subcutaneous, PBQ i.p. 25 min after compound, read-out: ED50, Writhing Assay, Subcutaneous (S.C.)); 1.9 mg/kg with mice [2]; 2.4 mg/kg in the assay on mice [3]. For the same compound, the “potency relative to the Jacobson Compound, Writhing Assay, oral” value with mice [1] (oral) is “seven times more potent”. The “potency relative to the Jacobson Compound, Writhing Assay, subcutaneous” value in the assay on mice [1] (subcutaneous) is on record as “eight times more potent”. Besides, the 50% inhibitory concentration (IC50) at δ opioid receptors is 0.3 nM; at μ opioid receptors, 0.4 nM. For the same compound, on δ opioid receptors (ratio of mean IC50 values for μ and δ, above 1.0 = more δ specific), the “Mean IC50 μ/δ Ratio” value came to 1.3.
